Patent publication US10206944B2, “Chondroitin for use in medicine” (ALTERGON S.A., priority 2012, dated 2019)

Assays:
HT-1376 cells = test: Flow cytometry of apoptotic and necrotic cells (Annexin V-FITC/PI); type: cell-based, human; set-up: unit not given here; settings: 48 h, alone or combined
Method: Flow cytometry was used to evaluate the quantity of apoptotic or necrotic cells. Fluorescein isothiocyanate (Annexin V-FITC) combined with propidium iodide (PI) was used as marker; the apoptotic cells were Annexin V-FITC positive and PI negative, and the necrotic cells were Annexin V-FITC positive and PI positive. The cells were labelled by incubating them with Annexin V-FITC (Diagnostics MedSystems) and PI (Sigma) in a binding buffer (10 mM HEPES, pH 7.4, 150 mM NaCl, 5 mM KCl, 1 mM MgCl2, 2.5 mM CaCl2) for 10 min at ambient temperature, and then washing and resuspending the cell material in the same buffer. The apoptotic and necrotic cells were analysed by flow cytometry (FACScan, Becton-Dickinson), acquiring an average of 2×10^4 events per sample, with determinations in triplicate on three separate experiments.

mini-pig dorsal wounds = test: Wound repair in the mini-pig, topical treatment; type: in vivo; set-up: key to d) Histological evaluation of biopsies after 4 weeks / e) Histological evaluation of biopsies after 6 weeks: collagen organisation 1-3; 3 = best healing, 1 = parallel bundles; settings: for a) Evaluation of wound quality after 4 weeks: 2.5 mL twice a day, 5 excellent; for a) Evaluation of wound quality after 4 weeks / b) Evaluation of wound quality after 6 weeks: 5-point scale; for d) Histological evaluation of biopsies after 4 weeks / e) Histological evaluation of biopsies after 6 weeks: collagen organisation, 3-point scale; for c) Histopathological evaluation after 6 weeks: scale of 1 to 3, 3 optimum healing
From the text: The mini-pig (an animal weighing 25-28 Kg), a model whose validity for wound-repair studies is widely recognised, was used as experimental model to evaluate the ability of chondroitin to accelerate the repair process of damaged skin tissue. Operating under general anaesthetic from the back of the animals, the hair was shaved and the shaven area was washed thoroughly with a 10% solution of iodine-polyvinylpyrrolidone complex and then with isopropyl alcohol. 12 elliptical wounds, six on each side, 20 mm long and 6 mm wide, were made on the shaven, disinfected backs of the animals. The wounds penetrated as far as the subcutaneous fat, about 4 cm from the median line of the back, with the longer side of the wound parallel to the spinal line. The incisions were then sewn with two stitches to close the dermal plane. The superficial stitches were removed after about 7 days. The wounds were covered with a non-adhesive dressing secured with sticking plaster, and the body of the animals was protected with an elastic bandage. Eight animals were selected and divided into two groups of 4, treated topically with chondroitin (first group) or chondroitin sulphate (second group), as described in the protocol shown in Table 11. Starting from the head of the animal, the first two wounds on both sides were treated with the carrier alone, consisting of 2.5 mL of saline, the second two on both sides were treated with 2.5 mL of a 30 mg/mL solution of chondroitin in saline (first group) or with 2.5 mL of a 30 mg/mL solution of chondroitin sulphate in saline (second group), and the third two on both sides were treated with 2.5 mL of a 60 mg/mL solution of chondroitin in saline (first group) or 2.5 mL of a 60 mg/mL solution of chondroitin sulphate in saline (second group). The treatment was performed by slowly dripping the solution into the wound twice a day and dabbing with a gauze dressing, which was then used to cover the wound so that the active ingredient remained in situ for longer. The study continued for 6 weeks, after which the animals were euthanized. A biopsy of about 4 mm was taken after 4 weeks, while the entire areas of the 12 dorsal wounds were removed from the euthanized animals for histological tests. The following evaluations were performed on the treated animals:
a) an evaluation after 4 and 6 weeks by 4 dermatologists who independently assessed the quality of the wound (colour, texture, edges, distortion) and the appearance of the surrounding tissue on a 5-point scale;
b) a pathological evaluation on a scale of 1 to 3 conducted by two veterinary surgeons on the tissue removed after the animals were euthanized, to evaluate the presence of abnormal histopathological situations (quantity of granulation tissue and inflammatory response, with a score from 3 for optimum healing to 1 for ongoing inflammatory symptoms and abundant granulation tissue);
c) a histological analysis of the 4-week biopsies and the tissue removed after the animals were euthanized, conducted by two histologists operating independently, who evaluated the organisation of the collagen on a 3-point scale. An organisation of the collagen fibres similar to the normal model, but smaller than normal dermis (the best healing), scored 3 points, an intermediate arrangement of the fibre weave scored 2 points, and several fibres arranged in parallel bundles or on a plane scored 1 point.

Aggrecan = test: Real-Time PCR gene expression in human chondrocytes: aggrecan; type: cell-based; settings: 1% w/v, ratio to untreated control
Method: To evaluate the biological effects of chondroitin on human chondrocyte cultures, the expression of a set of genes considered key to establishing the phenotype, and suitable markers for evaluating the quality of the tissue generated, was determined. The study was conducted on chondrocytes prepared from human cartilage, as reported in Example 2, the cells being grown in the presence of chondroitin or chondroitin sulphate. Using a standard procedure, 5*10^4 cells per well were seeded in a 24-well multiwell plate. The chondrocytes were grown in DMEM containing 1% w/v of chondroitin or chondroitin sulphate (endotoxin content ≤0.1 EU/mg). The cells were stimulated for 4, 7 and 10 days (Ishak et al., International J. of Pediatric Otorhinolaryngology, 2011, 75: 835-840), after which the RNA was extracted with Trizol Reagent, as described in the kit manual (Life Technologies Ltd, Milan, Italy). A qualitative morphological analysis of the cell culture was also conducted at the various times, in parallel with RNA extraction, by observing the corresponding samples at 4, 7 and 10 days under the optical microscope. The cells seeded at the three different times were observed under the microscope, and the images that best represented the cell growth conditions were acquired using a time-lapse videomicroscopy workstation. After RNA extraction, reverse transcription was performed with a total of 1 μg RNA and then with amplification by Real-Time PCR of genes which are specific markers for chondrocytes (Table 3).
Genes connected with matrix production, such as aggrecan, type I collagen, type II collagen and the Sox9 gene, the expression of which is closely correlated with the expression of type II collagen, were analysed as specific markers for differentiation and characterisation of chondrocytes. (Akiyama H., Mod Rheumatol., 2008, 18(3): 213-9; Yang et al., J. of Orthopaedic Res. 2011).
The gene expression of said markers on human chondrocytes cultured in basic medium (control) and with chondroitin treatment (C) or chondroitin sulphate treatment (CS) was analysed on cell cultures in the second and third growth phases.
The results of the gene expression analysis were reported as the average of at least 3 independent experiments for tests conducted in the presence of C or CS, on cells in phases 2 and 3.

[1] = 0.04 μg/mL of C or CS and 0.15 μg/mL of GEM
[2] = 5.7 μg/mL of C or CS and 1.7 μg/mL of MMC

Row | Substance | Cell state: apoptotic advanced (HT-1376 cells; [1]) | Cell state: apoptotic early (HT-1376 cells; [1]) | Cell state: necrotic (HT-1376 cells; [1]) | Cell state: viable (HT-1376 cells; [1]) | Cell state: apoptotic advanced (HT-1376 cells; [2]) | Cell state: apoptotic early (HT-1376 cells; [2]) | Cell state: necrotic (HT-1376 cells; [2]) | Cell state: viable (HT-1376 cells; [2]) | a) Evaluation of wound quality after 4 weeks (mini-pig dorsal wounds; 30 mg/mL) | b) Evaluation of wound quality after 6 weeks (mini-pig dorsal wounds; 30 mg/mL) | d) Histological evaluation of biopsies after 4 weeks (mini-pig dorsal wounds; 30 mg/mL) | e) Histological evaluation of biopsies after 6 weeks (mini-pig dorsal wounds; 30 mg/mL) | c) Histopathological evaluation after 6 weeks (mini-pig dorsal wounds; 30 mg/mL) | a) Evaluation of wound quality after 4 weeks (mini-pig dorsal wounds; 60 mg/mL) | b) Evaluation of wound quality after 6 weeks (mini-pig dorsal wounds; 60 mg/mL) | d) Histological evaluation of biopsies after 4 weeks (mini-pig dorsal wounds; 60 mg/mL) | e) Histological evaluation of biopsies after 6 weeks (mini-pig dorsal wounds; 60 mg/mL) | c) Histopathological evaluation after 6 weeks (mini-pig dorsal wounds; 60 mg/mL) | Fold Expression, Aggrecan (Aggrecan; phase II, 4 g) | Fold Expression, Aggrecan (Aggrecan; phase II, 7 g) | also measured
1 | chondroitin sulphate [CS, reference compound] | 5 ± 1 | 4 ± 1 | 23 ± 2 | 68 ± 4 | 1 ± 1 | 1 ± 1 | 36 ± 2 | 62 ± 4 | 2.6 ± 0.2 | 3.4 ± 0.3 | 1.3 ± 0.1 | 1.7 ± 0.2 | 1.7 ± 0.2 | 2.9 ± 0.2 | 3.7 ± 0.3 | 1.3 ± 0.1 | 1.7 ± 0.1 | 2.3 ± 0.2 | 1.28 ± 0.75 | 0.72 ± 0.27 | Fold Expression, Aggrecan (Aggrecan; phase II, 10 g): 0.45 ± 0.19; Fold Expression, Aggrecan (Aggrecan; phase III, 4 g): 0.17 ± 0.10; Fold Expression, Aggrecan (Aggrecan; phase III, 7 g): 0.87 ± 0.20; Fold Expression, Aggrecan (Aggrecan; phase III, 10 g): 0.59 ± 0.13
2 | chondroitin | 7 ± 2 | 6 ± 1 | 28 ± 3 | 59 ± 2 | 2 ± 1 | 1 ± 1 | 41 ± 2 | 56 ± 3 | 3.8 ± 0.4 | 4.5 ± 0.3 | 2.3 ± 0.2 | 2.7 ± 0.1 | 2.3 ± 0.1 | 4.1 ± 0.3 | 4.9 ± 0.1 | 2.7 ± 0.1 | 3.0 ± 0.2 | 3.0 ± 0.2 | 0.08 ± 0.02 | 1.66±0.22 | Fold Expression, Aggrecan (Aggrecan; phase II, 10 g): 1.07 ± 0.15; Fold Expression, Aggrecan (Aggrecan; phase III, 4 g): 0.16 ± 0.08; Fold Expression, Aggrecan (Aggrecan; phase III, 7 g): 0.79 ± 0.2; Fold Expression, Aggrecan (Aggrecan; phase III, 10 g): 2.3 ± 1.0
